# Data reported in ChEMBL document CHEMBL5113519, “Discovery of Novel Imidazo[4,5-c]quinoline Derivatives to Treat Inflammatory Bowel Disease (IBD) by Inhibiting Multiple Proinflammatory Signaling Pathways and Restoring Intestinal Homeostasis” (J Med Chem, 2022).
# Calls of active or inactive are those of the source. No cut-off for these calls is given here.
# How the values were obtained:
# [1] = molecular target: Tyrosine-protein kinase JAK1 (Homo sapiens, UniProt P23458); test: Inhibition of JAK1 (unknown origin) using Kinase/Tyr 6 peptide as substrate incubated for 1 hrs in presence of ATP by fluorescence microplate reader analysis
# Tyrosine-protein kinase JAK1, sequence (P23458 whole entry): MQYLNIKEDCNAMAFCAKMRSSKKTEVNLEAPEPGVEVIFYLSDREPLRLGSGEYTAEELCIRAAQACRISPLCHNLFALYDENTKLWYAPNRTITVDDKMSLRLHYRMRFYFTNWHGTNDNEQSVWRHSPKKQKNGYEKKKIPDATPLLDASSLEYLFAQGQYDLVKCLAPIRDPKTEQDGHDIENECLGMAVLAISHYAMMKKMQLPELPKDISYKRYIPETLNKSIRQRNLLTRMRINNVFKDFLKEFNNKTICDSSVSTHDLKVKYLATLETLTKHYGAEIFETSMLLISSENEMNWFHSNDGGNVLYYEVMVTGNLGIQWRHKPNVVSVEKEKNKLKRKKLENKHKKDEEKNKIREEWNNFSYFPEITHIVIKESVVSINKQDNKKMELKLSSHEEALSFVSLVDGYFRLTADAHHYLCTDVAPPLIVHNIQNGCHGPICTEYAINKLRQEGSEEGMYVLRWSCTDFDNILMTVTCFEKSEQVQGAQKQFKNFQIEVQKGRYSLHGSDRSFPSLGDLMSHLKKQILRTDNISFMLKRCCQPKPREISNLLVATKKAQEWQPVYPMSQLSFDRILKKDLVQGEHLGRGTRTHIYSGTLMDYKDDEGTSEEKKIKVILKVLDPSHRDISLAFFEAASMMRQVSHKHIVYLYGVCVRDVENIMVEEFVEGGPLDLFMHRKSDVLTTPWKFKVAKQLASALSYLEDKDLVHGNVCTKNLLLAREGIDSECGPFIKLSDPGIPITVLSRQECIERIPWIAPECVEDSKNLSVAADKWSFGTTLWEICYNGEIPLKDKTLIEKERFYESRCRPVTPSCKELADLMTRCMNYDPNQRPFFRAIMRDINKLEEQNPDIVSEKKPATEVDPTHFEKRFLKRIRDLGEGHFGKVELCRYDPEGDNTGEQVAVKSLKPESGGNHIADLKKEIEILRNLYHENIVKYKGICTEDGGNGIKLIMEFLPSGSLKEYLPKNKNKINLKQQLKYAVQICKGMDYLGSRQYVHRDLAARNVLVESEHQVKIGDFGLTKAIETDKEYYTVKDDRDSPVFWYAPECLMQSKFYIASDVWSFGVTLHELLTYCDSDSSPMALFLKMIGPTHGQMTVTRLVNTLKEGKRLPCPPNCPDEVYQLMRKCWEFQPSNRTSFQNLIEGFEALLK
# [2] = molecular target: T1, Tyrosine-protein kinase JAK3 (Homo sapiens, UniProt P52333)
# T1 sequence (P52333 whole entry): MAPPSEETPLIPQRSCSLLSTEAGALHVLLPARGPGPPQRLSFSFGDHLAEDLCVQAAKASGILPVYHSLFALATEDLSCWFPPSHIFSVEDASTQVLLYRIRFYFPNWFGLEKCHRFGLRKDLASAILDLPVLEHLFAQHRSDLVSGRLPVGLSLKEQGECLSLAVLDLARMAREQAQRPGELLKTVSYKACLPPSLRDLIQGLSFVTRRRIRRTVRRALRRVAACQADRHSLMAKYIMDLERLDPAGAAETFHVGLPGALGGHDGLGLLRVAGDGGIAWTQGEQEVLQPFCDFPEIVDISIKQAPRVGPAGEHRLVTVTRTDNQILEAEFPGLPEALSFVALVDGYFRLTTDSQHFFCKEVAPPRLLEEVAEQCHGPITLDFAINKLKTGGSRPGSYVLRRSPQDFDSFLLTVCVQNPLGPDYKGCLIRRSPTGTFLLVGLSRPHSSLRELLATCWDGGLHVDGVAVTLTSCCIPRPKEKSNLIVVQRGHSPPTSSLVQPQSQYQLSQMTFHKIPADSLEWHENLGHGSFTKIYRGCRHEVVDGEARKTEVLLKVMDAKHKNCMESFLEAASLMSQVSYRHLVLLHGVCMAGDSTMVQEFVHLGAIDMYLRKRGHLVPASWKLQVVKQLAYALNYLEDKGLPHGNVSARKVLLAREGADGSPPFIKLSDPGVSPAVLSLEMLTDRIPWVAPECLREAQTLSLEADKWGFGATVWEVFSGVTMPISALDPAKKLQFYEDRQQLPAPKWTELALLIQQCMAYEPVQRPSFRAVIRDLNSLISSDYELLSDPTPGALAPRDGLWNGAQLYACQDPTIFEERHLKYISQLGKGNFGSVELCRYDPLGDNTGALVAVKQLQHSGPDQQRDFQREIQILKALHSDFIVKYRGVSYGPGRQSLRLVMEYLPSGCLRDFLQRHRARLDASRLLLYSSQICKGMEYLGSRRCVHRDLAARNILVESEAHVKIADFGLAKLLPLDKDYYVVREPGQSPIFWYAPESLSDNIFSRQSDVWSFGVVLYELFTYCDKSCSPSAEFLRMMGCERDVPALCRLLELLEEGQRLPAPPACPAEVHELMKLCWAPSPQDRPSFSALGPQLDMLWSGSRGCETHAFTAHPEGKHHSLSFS
# Description: Inhibition of JAK3 (unknown origin) using Kinase/Tyr 6 peptide as substrate incubated for 1 hrs in presence of ATP by fluorescence microplate reader analysis
# [3] = Cytotoxicity against human THP1-Dual cells assessed as inhibition of cell growth measured after 24 hrs by CCK-8 method; format: toxicity, cell-based
# [4] = molecular target: Tyrosine-protein kinase JAK2 (Homo sapiens, UniProt O60674)
# Tyrosine-protein kinase JAK2, sequence (O60674 whole entry): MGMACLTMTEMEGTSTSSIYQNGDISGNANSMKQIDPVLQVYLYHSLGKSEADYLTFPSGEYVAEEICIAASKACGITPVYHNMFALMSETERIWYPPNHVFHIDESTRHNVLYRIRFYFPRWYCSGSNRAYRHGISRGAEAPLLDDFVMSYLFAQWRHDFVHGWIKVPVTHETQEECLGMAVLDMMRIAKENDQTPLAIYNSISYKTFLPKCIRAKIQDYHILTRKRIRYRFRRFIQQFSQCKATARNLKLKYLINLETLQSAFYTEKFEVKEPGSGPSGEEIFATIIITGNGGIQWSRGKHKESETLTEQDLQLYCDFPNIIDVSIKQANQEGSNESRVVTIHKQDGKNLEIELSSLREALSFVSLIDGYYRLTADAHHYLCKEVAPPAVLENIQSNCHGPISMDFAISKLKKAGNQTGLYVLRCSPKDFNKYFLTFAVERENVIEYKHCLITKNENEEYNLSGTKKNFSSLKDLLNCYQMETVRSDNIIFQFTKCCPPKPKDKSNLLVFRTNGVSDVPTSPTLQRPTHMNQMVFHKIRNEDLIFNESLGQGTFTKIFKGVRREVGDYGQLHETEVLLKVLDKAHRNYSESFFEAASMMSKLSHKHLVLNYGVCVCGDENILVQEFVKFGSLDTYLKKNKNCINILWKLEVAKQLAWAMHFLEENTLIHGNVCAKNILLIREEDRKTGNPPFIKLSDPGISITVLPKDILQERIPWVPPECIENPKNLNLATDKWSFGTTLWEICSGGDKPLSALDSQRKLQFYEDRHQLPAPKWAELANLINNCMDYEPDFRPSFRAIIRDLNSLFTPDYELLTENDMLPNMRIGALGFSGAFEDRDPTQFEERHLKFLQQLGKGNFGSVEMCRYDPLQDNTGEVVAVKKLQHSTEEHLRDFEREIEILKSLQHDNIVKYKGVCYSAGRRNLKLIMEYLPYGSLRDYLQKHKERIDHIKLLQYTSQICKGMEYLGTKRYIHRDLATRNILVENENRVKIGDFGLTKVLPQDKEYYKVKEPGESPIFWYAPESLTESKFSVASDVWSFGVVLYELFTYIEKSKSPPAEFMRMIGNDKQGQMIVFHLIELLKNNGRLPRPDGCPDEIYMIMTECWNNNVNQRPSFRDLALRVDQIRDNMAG
# Description: Inhibition of JAK2 (unknown origin) using Kinase/Tyr 6 peptide as substrate incubated for 1 hrs in presence of ATP by fluorescence microplate reader analysis
# [5] = molecular target: Nuclear factor NF-kappa-B complex (Homo sapiens, UniProt P19838+Q00653+Q04206); test: Inhibition of NF kappa B activation (unknown origin); format: protein-complex assay
# Nuclear factor NF-kappa-B complex, sequence (P19838 1-433 limits assumed): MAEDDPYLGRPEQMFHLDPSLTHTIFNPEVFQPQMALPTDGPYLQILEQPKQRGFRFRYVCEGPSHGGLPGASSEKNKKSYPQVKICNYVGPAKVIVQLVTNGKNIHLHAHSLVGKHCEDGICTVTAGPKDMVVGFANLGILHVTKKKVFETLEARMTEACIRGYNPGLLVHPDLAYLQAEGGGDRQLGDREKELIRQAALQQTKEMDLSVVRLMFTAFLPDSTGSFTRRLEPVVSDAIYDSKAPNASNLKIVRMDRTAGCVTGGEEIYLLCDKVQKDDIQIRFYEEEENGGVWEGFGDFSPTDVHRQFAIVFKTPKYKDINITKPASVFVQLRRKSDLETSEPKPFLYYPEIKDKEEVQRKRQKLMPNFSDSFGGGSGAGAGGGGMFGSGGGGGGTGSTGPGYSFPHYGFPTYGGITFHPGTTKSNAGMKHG
# Nuclear factor NF-kappa-B complex, sequence (Q00653 1-454 limits assumed): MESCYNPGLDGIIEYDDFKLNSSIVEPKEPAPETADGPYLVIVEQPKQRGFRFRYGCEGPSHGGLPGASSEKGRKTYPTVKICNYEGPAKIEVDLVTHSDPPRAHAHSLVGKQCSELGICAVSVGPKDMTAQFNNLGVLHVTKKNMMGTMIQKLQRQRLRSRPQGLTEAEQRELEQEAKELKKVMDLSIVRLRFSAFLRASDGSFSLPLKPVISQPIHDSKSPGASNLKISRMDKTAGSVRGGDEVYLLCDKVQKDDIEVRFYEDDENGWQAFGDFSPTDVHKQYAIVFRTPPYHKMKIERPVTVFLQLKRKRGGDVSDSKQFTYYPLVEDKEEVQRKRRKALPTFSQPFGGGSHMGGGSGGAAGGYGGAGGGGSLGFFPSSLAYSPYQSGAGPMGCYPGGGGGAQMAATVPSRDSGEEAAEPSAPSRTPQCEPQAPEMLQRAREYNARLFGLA
# Nuclear factor NF-kappa-B complex, sequence (Q04206 whole entry): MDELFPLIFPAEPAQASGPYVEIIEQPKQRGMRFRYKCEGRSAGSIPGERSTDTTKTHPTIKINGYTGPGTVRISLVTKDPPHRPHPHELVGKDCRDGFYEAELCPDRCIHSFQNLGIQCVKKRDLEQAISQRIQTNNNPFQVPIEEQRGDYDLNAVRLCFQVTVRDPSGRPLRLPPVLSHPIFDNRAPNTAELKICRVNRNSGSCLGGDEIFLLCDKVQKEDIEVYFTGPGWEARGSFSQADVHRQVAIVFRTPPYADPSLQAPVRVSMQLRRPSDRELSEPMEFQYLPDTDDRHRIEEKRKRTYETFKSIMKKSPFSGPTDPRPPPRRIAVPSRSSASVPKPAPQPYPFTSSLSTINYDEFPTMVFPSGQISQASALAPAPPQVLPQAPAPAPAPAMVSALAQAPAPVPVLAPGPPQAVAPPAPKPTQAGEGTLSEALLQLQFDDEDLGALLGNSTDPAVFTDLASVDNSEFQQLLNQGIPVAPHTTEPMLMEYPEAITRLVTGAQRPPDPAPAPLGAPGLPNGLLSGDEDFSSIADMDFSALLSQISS
# [6] = system: Mus musculus; test: Antiinflammatory activity in DSS-induced acute colitis C57BL/6 mouse model assessed as reduction in colon villi integrity in colon by measuring histopathological score at 100 mg/kg, po by H and E staining based analysis; format: functional, organism-based
# [7] = system: Mus musculus; test: Anti-inflammatory activity in TNBS induced IBD BALB/c mouse model assessed as reduction in weight by measuring disease activity index score at 100 mg/kg via oral gavage administered daily for 12 days measured daily; format: functional, organism-based; conditions: time 12.0 day
# [8] = system: Mus musculus; test: Antiinflammatory activity in DSS-induced acute colitis C57BL/6 mouse model assessed as reduction in inflammatory cell infiltration in colon by measuring histopathological score at 100 mg/kg, po by H and E staining based analysis; format: functional, organism-based
# [9] = system: Mus musculus; test: Antiinflammatory activity in DSS-induced acute colitis C57BL/6 mouse model assessed as reduction in intestinal edema in colon by measuring histopathological score at 100 mg/kg, po by H and E staining based analysis; format: functional, organism-based
# [10] = system: Mus musculus; test: Antiinflammatory activity in DSS-induced acute colitis C57BL/6 mouse model assessed as reduction in number of goblet cells in colon by measuring histopathological score at 100 mg/kg, po by H and E staining based analysis; format: functional, organism-based
# [11] = system: Mus musculus; test: Antiinflammatory activity in DSS-induced acute enteritis C57BL mouse model assessed as suppression of DSS induced weight loss at 100 mg/kg, po administered daily and measured upto 11 days relative to control; format: functional; conditions: time <= 11 day
# [12] = system: Mus musculus; test: Anti-inflammatory activity in TNBS induced IBD BALB/c mouse model assessed as reduction in bloody stool by measuring disease activity index score at 100 mg/kg via oral gavage administered daily for 12 days; format: functional, organism-based; conditions: time 12.0 day
# [13] = system: Mus musculus; test: Anti-inflammatory activity in TNBS induced IBD BALB/c mouse model assessed as reduction in stool softness by measuring disease activity index score at 100 mg/kg via oral gavage administered daily for 12 days; format: functional, organism-based; conditions: time 12.0 day
# [14] = system: Mus musculus; test: Antiinflammatory activity in DSS-induced acute colitis C57BL/6 mouse model assessed as reduction in lamina propria damage in colon by measuring histopathological score at 100 mg/kg, po by H and E staining based analysis; format: functional, organism-based
SMILES,IC50 [1],IC50 [2],further results
Cc1cc(-c2ccc3ncc4nc(C)n(C5CCN(C)CC5)c4c3c2)ccc1O,0.435 µM,> 0.5 µM,–
Cc1nc2cnc3ccc(-c4ccc(O)c(C#N)c4)cc3c2n1C1CCN(C)CC1,0.236 µM,> 0.5 µM,–
Cc1nc2cnc3ccc(-c4ccc(O)cc4F)cc3c2n1C1CCN(C)CC1,0.237 µM,> 0.5 µM,–
Cc1nc2cnc3ccc(-c4ccc(O)c(Cl)c4)cc3c2n1C1CCN(C)CC1,0.0423 µM,> 0.5 µM,–
O=C(c1ccccc1)c1ccc2nc(NC(=O)c3csc(C4CCN(c5ncnc6ccsc56)CC4)n3)[nH]c2c1,–,–,IC50 [5]: 0.2 µM
COc1cc(-c2ccc3ncc4nc(C)n(C5CCN(C)CC5)c4c3c2)ccc1O,0.776 µM,> 0.5 µM,–
Cc1nc2cnc3ccc(-c4ccc(N5CCOCC5)cc4)cc3c2n1C1CCN(C)CC1,> 0.5 µM,–,–
Nc1ccc(O)c(C(=O)O)c1 [MESALAMINE],–,–,Activity [6]: Active; Activity [7]: Active; Activity [8]: Active; Activity [9]: Active; Activity [10]: Active; Activity [11]: 11.69%; Activity [12]: Active; Activity [13]: Active; Activity [14]: Active
Cc1cc(-c2ccc3ncc4nc(C)n(C5CCN(C)CC5)c4c3c2)cc(C)c1O,0.1 µM,> 0.5 µM,–
Cc1nc2cnc3ccc(-c4ccc(O)c(C(F)(F)F)c4)cc3c2n1C1CCN(C)CC1,> 0.5 µM,> 0.5 µM,–
Cc1nc2cnc3ccc(-c4ccc(O)cc4)cc3c2n1C1CCN(C)CC1,0.56 µM,> 0.5 µM,–
Cc1nc2cnc3ccc(-c4ccc(O)cc4Cl)cc3c2n1C1CCN(C)CC1,0.386 µM,> 0.5 µM,–
Cc1nc2cnc3ccc(-c4cc(Cl)cc(Cl)c4)cc3c2n1C1CCN(C)CC1,> 0.5 µM,> 0.5 µM,–
Cc1nc2cnc3ccc(-c4ccc(F)c(O)c4)cc3c2n1C1CCN(C)CC1,> 0.5 µM,–,–
Cc1nc2cnc3ccc(-c4ccccc4O)cc3c2n1C1CCN(C)CC1,> 0.5 µM,–,–
Cc1nc2cnc3ccc(-c4ccc5c(c4)OCCO5)cc3c2n1C1CCN(C)CC1,> 0.5 µM,–,–

# Continued, in another order:
IC50 [1],IC50 [2],SMILES,further results
0.0167 µM,0.063 µM,Cc1nc2cnc3ccc(-c4cc(Cl)c(O)c(Cl)c4)cc3c2n1[C@H]1CC[C@H](N(C)C)CC1,–
0.0026 µM,0.0032 µM,Cc1nc2cnc3ccc(-c4cc(Cl)c(O)c(Cl)c4)cc3c2n1[C@@H]1CCCN(C)C1,IC50 at 24 h [3]: 2 µM; IC50 [4]: 0.0135 µM
0.0194 µM,> 0.5 µM,Cc1nc2cnc3ccc(-c4cc(F)c(O)c(F)c4)cc3c2n1C1CCN(C)CC1,IC50 [4]: > 0.5 µM
0.0068 µM,0.0208 µM,Cc1nc2cnc3ccc(-c4cc(Cl)c(O)c(Cl)c4)cc3c2n1C1CCOCC1,IC50 [4]: 0.0226 µM
0.0066 µM,0.0049 µM,Cc1nc2cnc3ccc(-c4cc(Cl)c(O)c(Cl)c4)cc3c2n1C1CCCN(C)C1 (stereo not drawn),–
0.0055 µM,0.0196 µM,Cc1nc2cnc3ccc(-c4cc(Cl)c(O)c(Cl)c4)cc3c2n1[C@H]1CCCN(C)C1,–
0.0119 µM,0.127 µM,Cc1nc2cnc3ccc(-c4cc(F)c(O)c(Cl)c4)cc3c2n1C1CCN(C)CC1,IC50 [4]: 0.136 µM
0.0099 µM,0.0202 µM,Cc1nc2cnc3ccc(-c4cc(Cl)c(O)c(Cl)c4)cc3c2n1[C@H]1CC[C@H](O)CC1,–
0.0074 µM,0.062 µM,Cc1nc2cnc3ccc(-c4cc(Cl)c(O)c(Cl)c4)cc3c2n1C1CCN(CN(C)C)CC1,–
0.03 µM,> 0.5 µM,Cc1nc2cnc3ccc(-c4ccc(O)c(F)c4)cc3c2n1C1CCN(C)CC1,IC50 [4]: > 0.5 µM
0.0072 µM,0.0154 µM,Cc1nc2cnc3ccc(-c4cc(Cl)c(O)c(Cl)c4)cc3c2n1[C@H]1CC[C@H](CO)CC1,IC50 [4]: 0.0126 µM
